This assay concerns L1210 leukemia ip in BDF1 mice, survival T/C. Description: NCI In Vivo Anticancer Drug Screen. Data for tumor model L1210 Leukemia (intraperitoneal) in B6D2F1 (BDF1) mice. The settings on record: endpoint: mean survival time, higher = longer survival. Summed up: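 Transplanted-tumor mice were given test agent; controls received vehicle only. Survival readings from the two groups were divided (treated over control).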

[1] abbreviates: dose: 100.0 mg/kg/injection, schedule: Q01DX001 (ip), vehicle: saline.
Where [2] appears, read: dose: 100.0 mg/kg/injection, schedule: Q04DX003 (ip), vehicle: saline.
Where [3] appears, read: dose: 200.0 mg/kg/injection, schedule: Q01DX001 (ip), vehicle: saline.
Setting [4] is: dose: 200.0 mg/kg/injection, schedule: Q04DX003 (ip), vehicle: saline.
[5] abbreviates: dose: 400.0 mg/kg/injection, schedule: Q04DX003 (ip), vehicle: saline.
[6] abbreviates: dose: 100.0 mg/kg/injection, schedule: Q01DX001 (ip), vehicle: carboxymethylcellulose (CMC).
The mark [7] stands for this setting: dose: 200.0 mg/kg/injection, schedule: Q01DX001 (ip), vehicle: carboxymethylcellulose (CMC).
Where [8] appears, read: dose: 400.0 mg/kg/injection, schedule: Q01DX001 (ip), vehicle: carboxymethylcellulose (CMC).
Where [9] appears, read: dose: 100.0 mg/kg/injection, schedule: Q01DX001 (ip), vehicle: saline with Tween-80.
Where [10] appears, read: dose: 200.0 mg/kg/injection, schedule: Q01DX001 (ip), vehicle: saline with Tween-80.
The mark [11] stands for this setting: dose: 400.0 mg/kg/injection, schedule: Q01DX001 (ip), vehicle: saline with Tween-80.
Setting [12] is: dose: 100.0 mg/kg/injection, schedule: Q04DX003 (ip), vehicle: Klucel (hydroxypropylcellulose) (HPC).
The mark [13] stands for this setting: dose: 200.0 mg/kg/injection, schedule: Q04DX003 (ip), vehicle: Klucel (hydroxypropylcellulose) (HPC).
Setting [14] is: dose: 400.0 mg/kg/injection, schedule: Q04DX003 (ip), vehicle: Klucel (hydroxypropylcellulose) (HPC).
Setting [15] is: dose: 100.0 mg/kg/injection, schedule: Q01DX009 (ip), vehicle: Klucel (hydroxypropylcellulose) (HPC).
Setting [16] is: dose: 200.0 mg/kg/injection, schedule: Q01DX009 (ip), vehicle: Klucel (hydroxypropylcellulose) (HPC).
The mark [17] stands for this setting: dose: 100.0 mg/kg/injection, schedule: Q01DX009 (ip), vehicle: saline with Tween-80.
Where [18] appears, read: dose: 200.0 mg/kg/injection, schedule: Q01DX009 (ip), vehicle: saline with Tween-80.
[19] abbreviates: dose: 50.0 mg/kg/injection, schedule: Q01DX009 (ip), vehicle: saline with Tween-80.
The mark [20] stands for this setting: dose: 50.0 mg/kg/injection, schedule: Q01DX009 (ip), vehicle: Klucel (hydroxypropylcellulose) (HPC).

SMILES strings stand for the structures. Several values for one entry are separate records, joined by “and”; a condition that tells them apart may be missing. Equal entries are not always repeated. Inconclusive results and toxic doses are left out.

Turning to `Cc1ncnc2[nH]c(=S)[nH]c12`, the T/C was 105 % of control (dose: 75.0 mg/kg/injection, schedule: Q01DX001 (ip), vehicle: saline); 101 % of control (dose: 150.0 mg/kg/injection, schedule: Q01DX001 (ip), vehicle: saline); 100 % of control (dose: 300.0 mg/kg/injection, schedule: Q01DX001 (ip), vehicle: saline).

As for `O=S(=O)(CC(Cl)c1ccccc1)c1ccc(Br)cc1` (centres undefined), the T/C was 94 % of control under setting [1]; 94 % of control under setting [2]; 92 % of control under setting [3]; 96 % of control under setting [4]; 92 % of control (dose: 400.0 mg/kg/injection, schedule: Q01DX001 (ip), vehicle: saline); 94 % of control under setting [5].

Regarding `Brc1cccc[n+]1-c1ccc2cc(-[n+]3ccccc3Br)ccc2c1`, the T/C (dose: 9.38 mg/kg/injection, schedule: Q01DX001 (ip), vehicle: other) is 100 % of control.

As to `O=C(O)c1ccccc1SSc1ccccc1C(=O)O`, the T/C by setting is: (dose: 50.0 mg/kg/injection, schedule: Q01DX001 (ip), vehicle: carboxymethylcellulose (CMC)) 100 % of control; under setting [6], 100 % of control; under setting [7], 96 % of control; under setting [8], 103 % of control.

As to `OC1CCN2CCCc3cccc1c32` (centres undefined), the T/C (dose: 12.5 mg/kg/injection, schedule: Q01DX009 (ip), vehicle: DMSO) was 93 % of control; the T/C (dose: 12.5 mg/kg/injection, schedule: Q04DX003 (ip), vehicle: DMSO) was 94 % of control; the T/C (dose: 25.0 mg/kg/injection, schedule: Q01DX009 (ip), vehicle: DMSO) was 94 % of control; the T/C (dose: 25.0 mg/kg/injection, schedule: Q04DX003 (ip), vehicle: DMSO) was 95 % of control; the T/C (dose: 50.0 mg/kg/injection, schedule: Q01DX009 (ip), vehicle: DMSO) was 90 % of control; the T/C (dose: 50.0 mg/kg/injection, schedule: Q04DX003 (ip), vehicle: DMSO) was 105 % of control.

`CC(/C=C/c1ccccc1)=N\O`: the T/C (dose: 100.0 mg/kg/injection, schedule: Q01DX009 (ip), vehicle: saline sonified) is 91 % of control; the T/C (dose: 200.0 mg/kg/injection, schedule: Q01DX009 (ip), vehicle: saline sonified) is 94 % of control; the T/C (dose: 400.0 mg/kg/injection, schedule: Q01DX009 (ip), vehicle: saline sonified) is 100 % of control.

In the case of `c1ccc(CCCCCCCCCCc2ccccc2)cc1`, the T/C runs as follows: under setting [9], 91 % of control; under setting [10], 95 % of control; under setting [11], 98 % of control.

Take `CCOC(=O)CNCc1ccc(Cl)c(Cl)c1`: the T/C by setting is: (dose: 50.0 mg/kg/injection, schedule: Q04DX003 (ip), vehicle: water) 106 % of control; (dose: 100.0 mg/kg/injection, schedule: Q04DX003 (ip), vehicle: water) 95 % of control and 106 % of control; (dose: 200.0 mg/kg/injection, schedule: Q04DX003 (ip), vehicle: water) 87 % of control and 92 % of control.

With `O=C(O)COc1ccc(Cl)cc1`, the T/C was 97 % of control under setting [12], 100 % of control under setting [13] and 100 % of control under setting [14].

With `NC(=O)N(CCO)CCO`, the T/C runs as follows: under setting [2], 110 % of control; under setting [4], 96 % of control; under setting [5], 104 % of control.

As to `CN(C)c1ccc(C=Nc2ccc3c(c2)Cc2ccccc2-3)cc1`, the T/C under setting [15] is 97 % of control; the T/C under setting [12] is 94 % of control; the T/C under setting [16] is 95 % of control; the T/C under setting [13] was 107 % of control; the T/C (dose: 400.0 mg/kg/injection, schedule: Q01DX009 (ip), vehicle: Klucel (hydroxypropylcellulose) (HPC)) was 90 % of control; the T/C under setting [14] was 97 % of control.

Consider `NCC(O)C(F)(F)F` (centres undefined), for which the T/C by setting is: under setting [6], 109 % of control; under setting [7], 97 % of control; under setting [8], 118 % of control.

For `c1ccn2nnnc2c1`, the T/C reads like this: (dose: 100.0 mg/kg/injection, schedule: Q01DX001 (ip), vehicle: other) 97 % of control; (dose: 200.0 mg/kg/injection, schedule: Q01DX001 (ip), vehicle: other) 94 % of control.

`Fc1cccc(N2CCOCC2)c1`: the T/C runs as follows: (dose: 50.0 mg/kg/injection, schedule: Q01DX001 (ip), vehicle: saline) 101 % of control; under setting [1], 93 % of control; under setting [3], 101 % of control.

With `COc1ccccc1C(=O)N/N=C/c1cccc2ccccc12`, the T/C is, setting by setting: under setting [17], 114 % of control; (dose: 100.0 mg/kg/injection, schedule: Q04DX003 (ip), vehicle: saline with Tween-80) 103 % of control; under setting [18], 105 % of control; (dose: 200.0 mg/kg/injection, schedule: Q04DX003 (ip), vehicle: saline with Tween-80) 96 % of control; (dose: 400.0 mg/kg/injection, schedule: Q01DX009 (ip), vehicle: saline with Tween-80) 107 % of control; (dose: 400.0 mg/kg/injection, schedule: Q04DX003 (ip), vehicle: saline with Tween-80) 94 % of control.

As to `O=c1[nH]nnc2c1nc(Cc1ccc([N+](=O)[O-])cc1)n2Cc1ccccc1`, the T/C runs as follows: under setting [9], 102 % of control; under setting [10], 86 % of control; under setting [11], 100 % of control.

As for `CC(=O)NC(C(=O)O)C(C)C(=O)O` (centres undefined), the T/C by setting is: under setting [2], 90 % of control; under setting [4], 93 % of control; under setting [5], 92 % of control.

With `C#CCC#CCCCCCC`, the T/C under setting [19] was 95 % of control, the T/C under setting [17] was 95 % of control and the T/C under setting [18] was 95 % of control.

For `N#CCCNC(Cc1ccc(O)cc1)C(=O)O` (centres undefined), the T/C (dose: 12.5 mg/kg/injection, schedule: Q04DX003 (ip), vehicle: Klucel (hydroxypropylcellulose) (HPC)) is 104 % of control; the T/C (dose: 25.0 mg/kg/injection, schedule: Q01DX009 (ip), vehicle: Klucel (hydroxypropylcellulose) (HPC)) is 104 % of control; the T/C (dose: 25.0 mg/kg/injection, schedule: Q04DX003 (ip), vehicle: Klucel (hydroxypropylcellulose) (HPC)) is 98 % of control; the T/C under setting [20] was 95 % of control; the T/C (dose: 50.0 mg/kg/injection, schedule: Q04DX003 (ip), vehicle: Klucel (hydroxypropylcellulose) (HPC)) is 104 % of control; the T/C under setting [15] was 106 % of control. Also, the T/C under setting [12] is 100 % of control.

For `O=c1[nH]c(=O)c2[nH]c(N=Nc3ccc(S(=O)(=O)N(CCCl)CCCl)cc3)nc2[nH]1`, the T/C is, setting by setting: under setting [20], 97 % of control; under setting [15], 92 % of control; under setting [16], 94 % of control.

On to `O=NN(CCCl)C(=O)N[C@@H]1CCC[C@@H](O)C1`, for which the T/C by setting is: (dose: 13.0 mg/kg/injection, schedule: Q01DX001 (ip), vehicle: saline with Tween-80) 250 % of control; (dose: 20.0 mg/kg/injection, schedule: Q01DX001 (ip), vehicle: saline with Tween-80) 357 % of control; (dose: 30.0 mg/kg/injection, schedule: Q01DX001 (ip), vehicle: saline with Tween-80) 420 % of control; (dose: 44.0 mg/kg/injection, schedule: Q01DX001 (ip), vehicle: saline with Tween-80) 417 % of control.

Regarding `COC(=O)N/N=C/C=C/c1ccccc1`, the T/C was 101 % of control (dose: 25.0 mg/kg/injection, schedule: Q01DX009 (ip), vehicle: saline with Tween-80); 105 % of control under setting [19]; 97 % of control under setting [17].

With `O=C1NC(c2ccc3ccccc3n2)Nc2ccccc21` (centres undefined), the T/C is 92 % of control under setting [20]; 93 % of control under setting [15]; 90 % of control (dose: 150.0 mg/kg/injection, schedule: Q01DX009 (ip), vehicle: Klucel (hydroxypropylcellulose) (HPC)).

Values taken from PubChem BioAssay AID248 (DTP/NCI, 2004).
